Measured values as given in US7211269B2, “Cosmetic or dermatological use of peptides for promoting adhesion between skin cells” (Societe d' Extraction de Principes Actifs S.A., priority 2001, dated 2007).
Where no end group is shown, it is not given here.

Experiments:
[1] = Stability of the peptide in culture medium removed from human fibroblasts and keratinocytes (released degradation enzymes), HPLC; assay type: in vitro ADME; conditions: medium from human fibroblasts and keratinocytes cultivated 24 hours at 37° C.; after 24 hours with peptide
Description: (§1) The Peptide (Gly-Pro-Gln)2-NH2 (SEQ ID NO: 2) was analyzed with a concentration of 10^-4 M by HPLC on a column of the C18 type, and with a linear gradient water/TFA 0.1%—acetonitril/TFA 0.1%.
(§2) Human fibroblasts and keratinocytes were cultivated during 24 hours at 37° C. and 5% of CO2. For this period, the cells will release many degradation enzymes in the culture medium. Thereafter, the culture medium is removed to be put in the presence of the peptide.

[2] = Stability of the peptide by HPLC at various temperatures; assay type: physicochemical; conditions: 10^-4 M
Description: as §1

[3] = tested on: fibroblasts and keratinocytes in culture; test: Peptide applied to fibroblasts and keratinocytes in culture, HPLC analysis of the culture medium; assay type: cell-based, human
Description: as §2
A test is carried out by applying the peptide to the fibroblasts and to the keratinocytes in culture.
This assumption is then consolidated by the tests of effectiveness exposed in the […]

keratinocytes = test: Adhesion of keratinocytes to pre-treated 96 wells micro-plates (MTT, OD reading); assay type: cell-based
Description: The study is carried out in 96 wells micro-plates on keratinocytes cultured in an incubator at 37° C. and 5% of CO2. The wells of these plates are pre-treated, for 12 hours, in different ways; four conditions have been realized: • Condition A: negative control, not containing peptide; • Condition B: incubated with various peptides, made up from 3 to 25 amino acids, with a concentration of 35 ppm; • Condition C: incubated with collagen of the type I with a concentration of 60 ppm; • Condition D: incubated with the peptide of sequence (Gly-Pro-Gln)2-NH2 (SEQ ID NO: 2) to a concentration of 5 ppm.
After 3 hours of contact with the keratinocytes, the wells are completely filled with medium, hermetically closed, turned over and agitated on a three-dimensional agitator during 20 minutes. Then the plates are emptied and the remaining medium is aspired. Then, 100 μl of MTT with 1 mg/ml are added by wells and are left for 3 hours at 37° C. and 5% CO2. The solution is finally withdrawn, then 100 μl of DMSO is added. A reading of the OD is made at 560 nm against 630 nm.
The OD is proportional to the quantity of viable cells, i.e. which adhered to the micro-plates.

GPQGPQ-NH2 [(Gly-Pro-Gln)2-NH2]
degradation of the peptide in cell-conditioned culture medium [1]: almost no degradation | decomposition of peptide (HPLC) ([2]; after 24 hours at 25° C., 37° C. and 60° C.): no decomposition | peptide degradation (HPLC) ([2]; after 8 days at 25° C.): no peptide degradation | peptide concentration in the culture medium [3]: decreases quickly | cell adhesion (in words) (keratinocytes; 5 ppm, after 3 hours of contact with the keratinocytes, compared with collagen of the type I at 60 ppm): good cell adhesion, similar to that of the collagen of the type I | O.D. (proportional to quantity of viable adhered cells) (keratinocytes; Condition D: wells pre-treated 12 hours with 5 ppm, 3 hours of contact with keratinocytes, OD 560 nm against 630 nm): 0.620
